Test results as given in US11696920B2, “Intelligent delivery of ingested and absorbed molecules” (IMMD SP. ZO.O, priority 2016, dated 2023).

Tests used:
[1] = tested on: liver lipid metabolism; test: Serum triglycerides, DHA and carotenoid-SFA formulations, trial for 4 weeks; type: in vivo, human
[2] = tested on: liver lipid metabolism; test: Serum LDL cholesterol, DHA and carotenoid-SFA formulations, trial for 4 weeks; type: in vivo, human
[3] = tested on: blood markers of oxidative and inflammatory damage; test: IOD blood marker, DHA and carotenoid-SFA formulations, trial for 4 weeks; type: in vivo, human
Text: (§1) Since DHA itself has antioxidant and anti-inflammatory properties it was important to assess whether its formulation with carotenoids and SFA would change them. Comparison of the effects of DHA and its new formulations on blood markers of oxidative and inflammatory damage is presented in Table 7.

[4] = tested on: LDL; test: LDL-Px blood marker, DHA and carotenoid-SFA formulations, trial for 4 weeks; type: in vivo, human
Text: as §1
It is worth pointing out that the real synergetic effect may be even more profound, because in both of those carotenoid-SFA formulations only half of the dose of the control DHA was used.

[5] = Serum DHA pharmacokinetics after 4 weeks of supplementation with DHA formulations; conditions: human, in vivo
[6] = Serum EPA pharmacokinetics after 4 weeks of supplementation with DHA formulations; conditions: human, in vivo
[7] = publicly available trans-resveratrol formulations; cited from earlier work

| Structure (SMILES) | Triglycerides ([1]; 0 w) [mg/dL] | Triglycerides ([1]; 4 w) [mg/dL] | Triglycerides, % of baseline ([1]; 4 w) [%] | Δ Triglycerides vs 0 w ([1]; 4 w) | LDL cholesterol ([2]; 0 w) [mg/dL] | LDL cholesterol ([2]; 4 w) [mg/dL] | Δ LDL cholesterol vs 0 w ([2]; 4 w) | IOD in MDA ([3]; 0 w) [µM] | IOD in MDA ([3]; 4 w) [µM] | IOD, % of baseline ([3]; 4 w) [%] | Δ IOD vs 0 w ([3]; 4 w) | LDL-Px ([4]; 0 w) [ELISA × 10^3] | LDL-Px ([4]; 4 w) [ELISA × 10^3] | LDL-Px, % of baseline ([4]; 4 w) [%] | Δ LDL-Px vs 0 w ([4]; 4 w) | further results |
| --- | --- | --- | --- | --- | --- | --- | --- | --- | --- | --- | --- | --- | --- | --- | --- | --- |
| CC(C)=CCC/C(C)=C/C=C/C(C)=C/C=C/C(C)=C/C=C/C=C(C)/C=C/C=C(C)/C=C/C=C(\C)CCC=C(C)C [Lycopene 7 mg, Lycopene] | 155 ± 12 | 150 ± 13 | 97 | Δ = −5 mg/dL | 158 ± 17 | 154 ± 16 | Δ = −4 mg/dL | 111 ± 12 | 79 ± 9 | 71 | Δ = −32 μM | 133 ± 19 | 115 ± 14 | 86 | Δ = −18 ELISA × 10^3 | Change in triglyceride concentrations ([1]; end of the 4-week trial): no significant change; Effect on serum LDL level ([2]; 4 weeks): did not affect level of LDL |
| CC/C=C\C/C=C\C/C=C\C/C=C\C/C=C\C/C=C\CCC(=O)O [DHA 500 mg, docosahexaenoic acid] | 197 ± 18 | 184 ± 17 | 93 | Δ = −13 mg/dL | 154 ± 16 | 149 ± 15 | Δ = −5 mg/dL | 165 ± 18 | 107 ± 11 | 65 | Δ = −58 μM | 700 ± 76 | 265 ± 27 | 38 | Δ = −435 ELISA × 10^3 | concentration at 0 weeks [5]: 106 ± 11 µg/mL; concentration at 2 weeks [5]: 134 ± 12 µg/mL; concentration at 4 weeks [5]: 108 ± 12 µg/mL; Increase in serum DHA ([5]; 2 weeks): 26%; Δ serum DHA vs 0 w ([5]; 2 weeks): Δ = +28 μg/ml; Δ serum DHA vs 0 w ([5]; 4 weeks): Δ = +2 μg/ml; Combined increase in serum EPA [6]: 11.6 µg/mL; Serum EPA ([6]; 0 weeks): 56.5 ± 6.2 µg/mL; Increase in serum EPA ([6]; 2 weeks): 21%; Serum EPA ([6]; 2 weeks): 68.1 ± 7.4 µg/mL; Δ serum EPA vs 0 w ([6]; 2 weeks): Δ = +11.6 μg/ml; Serum EPA ([6]; 4 weeks): 35.8 ± 5.3 µg/mL; Reduction of serum triglycerides ([1]; 4 weeks): 13 mg/dL |
| Oc1ccc(/C=C/c2cc(O)cc(O)c2)cc1 [trans-resveratrol] |  |  |  |  |  |  |  |  |  |  |  |  |  |  |  | Fraction bioavailable after oral consumption [7]: 5% |
